This is an account of results in ChEMBL document CHEMBL1140180, “Antiproliferative triterpenes from Melaleuca ericifolia” (J Nat Prod, 2008).

This assay is described as follows: Antiproliferative activity against mouse +SA mammary epithelial cells after 4 days by MTT assay. In kind it is functional, cell-based. Conditions: Epithelial cell, 96 h. Background: Tetrazolium dyes change colour on reduction, which living cells bring about.

Usually IC50 stands for the concentration at which inhibition is half-maximal. `C[C@H]1CO[C@]23CC[C@@H]1[C@@H]2[C@H]1CC[C@@H]2[C@@]4(C)CC[C@H](O)C(C)(C)[C@@H]4CC[C@@]2(C)[C@]1(C)CC3` showed an IC50 of 18.1 µM.
As to `C=C(C)[C@@H]1CC[C@]2(O)CC[C@]3(C)[C@H](CC[C@@H]4[C@@]5(C)CC[C@H](O)C(C)(C)[C@@H]5CC[C@]43C)[C@@H]12`, the IC50 was determined as 18.7 µM.
The result for `C=C(C)[C@@H]1CC[C@]2(OO)CC[C@]3(C)[C@H](CC[C@@H]4[C@@]5(C)CC[C@H](O)C(C)(C)[C@@H]5CC[C@]43C)[C@@H]12` reads 15.5 µM.
The same measure for `C=C(C)[C@@H]1CC[C@@]2(OO)CC[C@]3(C)[C@H](CC[C@@H]4[C@@]5(C)CC[C@H](O)C(C)(C)[C@@H]5CC[C@]43C)[C@@H]12`: > 20 µM; for `C[C@H]1[C@H](C)CC[C@]2(C(=O)O)CC[C@]3(C)C(=CC[C@@H]4[C@@]5(C)C[C@@H](O)[C@H](O)[C@@](C)(CO)[C@@H]5CC[C@]43C)[C@H]12` [ASIATIC ACID]: > 20 µM.
In turn, `C=C(C)[C@@H]1CC[C@]2(C=O)CC[C@]3(C)[C@H](CC[C@@H]4[C@@]5(C)CC[C@H](O)C(C)(C)[C@@H]5CC[C@]43C)[C@@H]12` [BETULINALDEHYDE] displayed an IC50 of 19.4 µM. This counts as double-digit micromolar.
The same measure for `C=C(C)[C@@H]1CC[C@]2(C(=O)O)CC[C@]3(C)[C@H](CC[C@@H]4[C@@]5(C)CC[C@H](O)C(C)(C)[C@@H]5CC[C@]43C)[C@@H]12` [BETULINIC ACID]: > 20 µM; for `C=C(C)[C@@H]1CC[C@]2(CO)CC[C@]3(C)[C@H](CC[C@@H]4[C@@]5(C)CC[C@H](O)C(C)(C)[C@@H]5CC[C@]43C)[C@@H]12` [BETULIN]: > 20 µM; for `CC(=O)[C@@H]1CC[C@]2(C(=O)O)CC[C@]3(C)[C@H](CC[C@@H]4[C@@]5(C)CC[C@H](O)C(C)(C)[C@@H]5CC[C@]43C)[C@@H]12` [PLATANIC ACID]: > 20 µM.
For `C[C@H]1[C@H](C)CC[C@]2(C(=O)O)CC[C@]3(C)C(=CC[C@@H]4[C@@]5(C)CC[C@H](O)C(C)(C)[C@@H]5CC[C@]43C)[C@H]12` [URSOLIC ACID], the IC50 was > 20 µM.
